Experimental findings from US12459938B2, “ORAI channel inhibitors” (Beth Israel Deaconess Medical Center, Inc., priority 2019, dated 2025) are described below.

Where only a bound is given, the exact number is not on record here.

This experiment relates to NFAT. Nature of the experiment: NFAT activation assay (luciferase reporter, PMA and ionomycin). It counts as cell-based. Particulars: Homo sapiens; 10 μM compound; Jurkat cells; 15 nM PMA and 0.5 μM ionomycin; 18 hours; read-out: Activity 10 μM (% inhibition of NFAT luciferase luminescence). As for the experimental part:
Jurkat cells (BPS Bioscience catalog No. 60621) were seeded at 40,000 cells per well into white clear-bottom 96-well microplate in 80 μl of growth medium without Geneticin. 10 μl of testing compounds (final 10 μM) were added to each well and preincubated with cells for half an hour. Then 10 μl of PMA and ionomycin mixture were added to each well to make the final concentration of 15 nM PMA and 0.5 μM ionomycin. Cells were incubated at 37° C. and 5% CO2 incubator for 18 hours. After treatment, cells were lysed and the luciferase assay was performed using ONE-Step luciferase assay system by adding 100 μl of One-Step Luciferase reagent (BPS Bioscience catalog No. 60690) per well followed by rocking at room temperature for about 30 minutes. Luminescence was measured using a luminometer (BioTek Synergym™ 2 microplate reader). The percent luminescence in the presence of each compound was calculated according to the following equation: % Luminescence=(L−Lb)/(Lt−Lb), where L=the luminescence intensity in the presence of the compound, Lb=the luminescence intensity in the absence of cells, and Lt=the luminescence intensity in the absence of the compound. The percent inhibition was calculated by: % inhibition=100−(% Luminescence).
For `O=C(Nc1ccncc1F)c1nn(CC2CC2)c2ccccc12` [Example 23, 1-(cyclopropylmethyl)-N-(3-fluoropyridin-4-yl)-1H-indazole-3-carboxamide], the inhibition at 10 µM was more than 75%. Consider `O=C(Nc1ccncc1F)c1ccn(CC2CC2)n1` [Example 20, 1-(cyclopropylmethyl)-N-(3-fluoropyridin-4-yl)-1H-pyrazole-3-carboxamide], for which the inhibition at 10 µM lay in the range of 51 to 75%.

As to `O=C(Nc1ccncc1F)c1nn(CC2CC2)c2cc(F)ccc12` [Example 38, 1-(cyclopropylmethyl)-6-fluoro-N-(3-fluoropyridin-4-yl)-1H-indazole-3-carboxamide], the inhibition at 10 µM is more than 75%.

As for `O=C(Nc1ccncc1F)c1nn(CC2CC2)c2c1CCCC2` [Example 25, 1-(cyclopropylmethyl)-N-(3-fluoropyridin-4-yl)-4,5,6,7-tetrahydro-1H-indazole-3-carboxamide], the inhibition at 10 µM is more than 75%.

Take `Fc1cnccc1NCc1cn(CC2CC2)c2ccccc12` [Example 15, N-((1-(cyclopropylmethyl)-1H-indol-3-yl)methyl)-3-fluoropyridin-4-amine]: the inhibition at 10 µM fell in the range of 26 to 50%.

As for `Cc1cnccc1NC(=O)c1nn(CC2CC2)c2ccccc12` [Example 6, 1-(cyclopropylmethyl)-N-(3-methylpyridin-4-yl)-1H-indazole-3-carboxamide], the inhibition at 10 µM was more than 75%. In the case of `Cc1cnccc1C(=O)Nc1ccn(CC2CC2)n1` [Example 30, N-[1-(cyclopropylmethyl)-1H-pyrazol-3-yl]-3-methylpyridine-4-carboxamide], the inhibition at 10 µM is less than 25%. For `O=C(Nc1ccncc1F)c1nn(CC2CC2)c2c1CCC2` [Example 32, 1-(cycloproylmethyl)-N-(3-fluoropyridin-4-yl)-1,4,5,6-tetrahydrocyclopenta[c]pyrazole-3-carboxamide], the inhibition at 10 µM is more than 75%.

On to `O=C(Nc1ccncc1F)c1cn(CC2CC2)c2ncccc12` [Example 5, 1-(cycloproylmethyl)-N-(3-fluoropyridin-4-yl)-1H-pyrrolo[2,3-b]pyridine-3-carboxamide], for which the inhibition at 10 µM was 26 to 50%. In the case of `CN(C(=O)c1cn(CC2CC2)c2ccccc12)c1ccncc1F` [Example 14, 1-(cyclopropylmethyl)-N-(3-fluoropyridin-4-yl)-N-methyl-1H-indole-3-carboxamide], the inhibition at 10 µM was less than 25%. Take `O=C(Nc1ccncc1F)c1nn(CC2CCC2)c2c1CCCC2` [Example 33, 1-(cyclobutylmethyl)-N-(3-fluoropyridin-4-yl)-4,5,6,7-tetrahydro-1H-indazole-3-carboxamide]: the inhibition at 10 µM is more than 75%. Take `Cc1cnccc1NC(=O)c1ccn(CC2CC2)n1` [Example 19, 1-(cyclopropylmethyl)-N-(3-methylpyridin-4-yl)-1H-pyrazole-3-carboxamide]: the inhibition at 10 µM is 51 to 75%. On to `Cc1ccc2c(c1)c(C(=O)Nc1ccncc1F)nn2CC1CC1` [Example 34, 1-(cyclopropylmethyl)-N-(3-fluoropyridin-4-yl)-5-methyl-1H-indazole-3-carboxamide], for which the inhibition at 10 µM is more than 75%. As for `Cc1cnccc1NC(=O)c1nn(CC2CCC2)c2ccccc12` [Example 11, 1-(cyclobutylmethyl)-N-(3-methylpyridin-4-yl)-1H-indazole-3-carboxamide], the figure is more than 75%. Consider `O=C(Nc1c(F)cccc1F)c1ccn(CC2CC2)n1` [Example 21, 1-(cyclopropylmethyl)-N-(2,6-difluorophenyl)-1H-pyrazole-3-carboxamide], for which the inhibition at 10 µM is less than 25%. With `O=C(Nc1ccncc1F)c1nn(CC2CC2)c2cc(Cl)ccc12` [Example 35, 6-chloro-1-(cyclopropylmethyl)-N-(3-fluoropyridin-4-yl)-1H-indazole-3-carboxamide], the inhibition at 10 µM was in the range of 51 to 75%. Take `O=C(Nc1c(F)cccc1F)c1nn(CC2CC2)c2c1CCCC2` [Example 26, 1-(cyclopropylmethyl)-N-(2,6-difluorophenyl)-4,5,6,7-tetrahydro-1H-indazole-3-carboxamide]: the inhibition at 10 µM is 51 to 75%. In the case of `O=C(Nc1ccncc1F)c1nn(CC2CC2)c2c(F)cccc12` [Example 39, 1-(cyclopropylmethyl)-7-fluoro-N-(3-fluoropyridin-4-yl)-1H-indazole-3-carboxamide], the inhibition at 10 µM fell in the range of 51 to 75%. With `O=C(Nc1ccncc1F)c1nn(CC2CC2)c2ncccc12` [Example 31, 1-(cyclopropylmethyl)-N-(3-fluoropyridin-4-yl)-1H-pyrazolo[3,4-b]pyridine-3-carboxamide], the inhibition at 10 µM is 51 to 75%. As for `Cc1cnccc1NC(=O)c1nn(CC2CC2)c2c1CCC2` [Example 41, 1-(cycloproylmethyl)-N-(3-methylpyridin-4-yl)-1,4,5,6-tetrahydrocyclopenta[c]pyrazole-3-carboxamide], the inhibition at 10 µM is 51 to 75%. `Cc1cnccc1NC(=O)c1nn(CC2CC2)c2c1CCCC2` [Example 42, 1-(cyclopropylmethyl)-N-(3-methylpyridin-4-yl)-4,5,6,7-tetrahydro-1H-indazole-3-carboxamide]: the inhibition at 10 µM was more than 75%. As for `O=C(Nc1ccncc1F)c1nn(CC2CC2)c2ccc(Br)cc12` [Example 36, 1-(cyclopropylmethyl)-5-bromo-N-(3-fluoropyridin-4-yl)-1H-indazole-3-carboxamide], the figure is 51 to 75%. `O=C(Nc1ccn(CC2CC2)n1)c1c(F)cncc1F` [Example 27, N-(1-(cyclopropylmethyl)-1H-pyrazol-3-yl)-3,5-difluoroisonicotinamide]: the inhibition at 10 µM is 26 to 50%. As to `O=C(Nc1ccncc1F)c1cn(CC2CC2)c2ccncc12` [Example 17, 1-(cyclopropylmethyl)-N-(3-fluoropyridin-4-yl)-1H-pyrrolo[3,2-c]pyridine-3-carboxamide], the inhibition at 10 µM was less than 25%.

Turning to `O=C(Nc1ccncc1F)c1cn(CC2COC2)c2ccccc12` [Example 12, N-(3-fluoropyridin-4-yl)-1-(oxetan-3-ylmethyl)-1H-indole-3-carboxamide], the inhibition at 10 µM is less than 25%. For the compound `O=C(Nc1ccncc1F)c1nn(CC2CC2)c2ccc(F)cc12` [Example 37, 1-(cyclopropylmethyl)-5-fluoro-N-(3-fluoropyridin-4-yl)-1H-indazole-3-carboxamide], the inhibition at 10 µM is more than 75%.

Take `Cc1c(C(=O)Nc2ccncc2F)c2ccccc2n1CC1CC1` [Example 43, 1-(cyclopropylmethyl)-N-(3-fluoropyridin-4-yl)-2-methyl-1H-indole-3-carboxamide]: the inhibition at 10 µM is more than 75%.

As to `O=C(Nc1ccncc1F)c1cn(CC2CC2)c2cccnc12` [Example 18, 1-(cycloproylmethyl)-N-(3-fluoropyridin-4-yl)-1H-pyrrolo[3,2-b]pyridine-3-carboxamide], the inhibition at 10 µM was 26 to 50%.

As for `O=C(Nc1c(F)cncc1F)c1ccn(CC2CC2)n1` [Example 22, 1-(cyclopropylmethyl)-N-(3,5-difluoropyridin-4-yl)-1H-pyrazole-3-carboxamide], the inhibition at 10 µM was less than 25%.

With `O=C(Nc1ccncc1F)c1nn(CC2CCC2)c2ccccc12` [Example 10, 1-(cyclobutylmethyl)-N-(3-fluoropyridin-4-yl)-1H-indazole-3-carboxamide], the inhibition at 10 µM is more than 75%.
